From patent US10689381B2 (priority 2017, dated 2020)
Like-named read-outs stand apart in the source and are kept apart here.

What was measured:
[1] = test system: HCT116; experiment: cells; type: cell-based, human; conditions: read-out: IC50 HCT116
How it was run: (§1)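 Compound exposure ran 72 h at six concentrations (0–1000 nM or 0–10000 nM, duplicate) on cells plated at 30,000 cells/mL in 10% FBS DMEM. A closing 37 °C incubation took 15 min (HCT116) or 5 min (L1210).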

[2] = test system: L1210; experiment: cells; type: cell-based, mouse
How it was run: as §1

| Compound | IC50 ([1]; Table 6) [µM] | IC50 ([2]; Table 6) [µM] | IC50 ([1]; Table 7, C20′ sulfonamides) [µM] | IC50 ([2]; Table 7, C20′ sulfonamides) [µM] |
| --- | --- | --- | --- | --- |
| CC[C@]1(NC(=O)c2ccc3ncsc3c2)C[C@H]2CN(CCc3c([nH]c4ccccc34)[C@@](C(=O)OC)(c3cc4c(cc3OC)N(C)[C@H]3[C@@](O)(C(=O)OC)[C@H](OC(C)=O)[C@]5(CC)C=CCN6CC[C@]43[C@@H]65)C2)C1 [Compound 170] | 0.0006 | 0.0005 | – | – |
| CC[C@]1(NC(=O)c2ccc3scnc3c2)C[C@H]2CN(CCc3c([nH]c4ccccc34)[C@@](C(=O)OC)(c3cc4c(cc3OC)N(C)[C@H]3[C@@](O)(C(=O)OC)[C@H](OC(C)=O)[C@]5(CC)C=CCN6CC[C@]43[C@@H]65)C2)C1 [Compound 171] | 0.0007 | 0.0006 | – | – |
| CCC1(NC(=O)c2nc3ccccc3s2)CC2CN(CCc3c([nH]c4ccccc34)C(C(=O)OC)(c3cc4c(cc3OC)N(C)C3C(O)(C(=O)OC)C(OC(C)=O)C5(CC)C=CCN6CCC43C65)C2)C1 (stereo not shown) [Compound 172] | 0.08 | 0.18 | – | – |
| CCC1(NC(=O)c2ccc3c(c2)OCO3)CC2CN(CCc3c([nH]c4ccccc34)C(C(=O)OC)(c3cc4c(cc3OC)N(C)C3C(O)(C(=O)OC)C(OC(C)=O)C5(CC)C=CCN6CCC43C65)C2)C1 (stereo not shown) [Compound 174] | 0.0008 | 0.0006 | – | – |
| CCC1(NC(=O)c2ccc3c(c2)OCCO3)CC2CN(CCc3c([nH]c4ccccc34)C(C(=O)OC)(c3cc4c(cc3OC)N(C)C3C(O)(C(=O)OC)C(OC(C)=O)C5(CC)C=CCN6CCC43C65)C2)C1 (stereo not shown) [Compound 175] | 0.0005 | 0.0006 | – | – |
| CCC1(NC(=O)c2ccc3c(c2)OCCN3C)CC2CN(CCc3c([nH]c4ccccc34)C(C(=O)OC)(c3cc4c(cc3OC)N(C)C3C(O)(C(=O)OC)C(OC(C)=O)C5(CC)C=CCN6CCC43C65)C2)C1 (stereo not shown) [Compound 176] | 0.0003 | 0.0003 | – | – |
| CCC1(NC(=O)c2ccc3c(c2)CCN3)CC2CN(CCc3c([nH]c4ccccc34)C(C(=O)OC)(c3cc4c(cc3OC)N(C)C3C(O)(C(=O)OC)C(OC(C)=O)C5(CC)C=CCN6CCC43C65)C2)C1 (stereo not shown) [Compound 177] | 0.0067 | 0.0051 | – | – |
| CC[C@]1(NC(=O)c2ccc3c(c2)CCN3C(=O)OC(C)(C)C)C[C@H]2CN(CCc3c([nH]c4ccccc34)[C@@](C(=O)OC)(c3cc4c(cc3OC)N(C)[C@H]3[C@@](O)(C(=O)OC)[C@H](OC(C)=O)[C@]5(CC)C=CCN6CC[C@]43[C@@H]65)C2)C1 [Compound 178] | 0.015 | 0.035 | – | – |
| CCC1(NS(=O)(=O)c2ccccc2)CC2CN(CCc3c([nH]c4ccccc34)C(C(=O)OC)(c3cc4c(cc3OC)N(C)C3C(O)(C(=O)OC)C(OC(C)=O)C5(CC)C=CCN6CCC43C65)C2)C1 (stereo not shown) [Compound 179] | – | – | 0.05 | 0.045 |
| CCC1(NS(=O)(=O)c2ccc(C)cc2)CC2CN(CCc3c([nH]c4ccccc34)C(C(=O)OC)(c3cc4c(cc3OC)N(C)C3C(O)(C(=O)OC)C(OC(C)=O)C5(CC)C=CCN6CCC43C65)C2)C1 (stereo not shown) [Compound 180] | – | – | 0.03 | 0.04 |
| CCC1(NS(=O)(=O)c2ccc(OC)cc2)CC2CN(CCc3c([nH]c4ccccc34)C(C(=O)OC)(c3cc4c(cc3OC)N(C)C3C(O)(C(=O)OC)C(OC(C)=O)C5(CC)C=CCN6CCC43C65)C2)C1 (stereo not shown) [Compound 181] | – | – | 0.03 | 0.035 |
| CCC1(NS(=O)(=O)c2cccc([N+](=O)[O-])c2)CC2CN(CCc3c([nH]c4ccccc34)C(C(=O)OC)(c3cc4c(cc3OC)N(C)C3C(O)(C(=O)OC)C(OC(C)=O)C5(CC)C=CCN6CCC43C65)C2)C1 (stereo not shown) [Compound 182] | – | – | 0.49 | 0.45 |
| CCC1(NS(=O)(=O)c2ccccc2[N+](=O)[O-])CC2CN(CCc3c([nH]c4ccccc34)C(C(=O)OC)(c3cc4c(cc3OC)N(C)C3C(O)(C(=O)OC)C(OC(C)=O)C5(CC)C=CCN6CCC43C65)C2)C1 (stereo not shown) [Compound 183] | – | – | 0.42 | 0.36 |
| CCC1(NS(=O)(=O)c2c(C)cc(C)cc2C)CC2CN(CCc3c([nH]c4ccccc34)C(C(=O)OC)(c3cc4c(cc3OC)N(C)C3C(O)(C(=O)OC)C(OC(C)=O)C5(CC)C=CCN6CCC43C65)C2)C1 (stereo not shown) [Compound 184] | – | – | 0.58 | 0.5 |
